The subject of test [1] is seizures evoked by kindling. Kind of test: kindling model of epilepsy, afterdischarge (AD) threshold. More on the design: change of AD threshold / duration of anticonvulsant effects after stopping 2-DG: dose or concentration left out as unconfirmed. The class given is in vivo, Sprague Dawley rats. As for the experimental part: FIG. 2 illustrates the effects on after-discharge threshold of 2-DG in a […] model of epilepsy.
2-deoxy-D-glucose (2-DG), a potent inhibitor of glycolysis, was administered to rats experiencing epileptic seizures evoked by kindling, which induces seizures and long-term alterations in pathways of the hippocampal formation resembling human temporal lobe epilepsy. The effects of 2-DG on seizures evoked by kindling were examined in Sprague Dawley rats that received 2-DG and were compared to a saline-injected control group. Both groups initially received twice daily kindling stimulation (1 sec trains of 1 ms bipolar constant current pulses at 60 Hz) delivered to the perforant path input to the hippocampus according to established procedures, until 3 afterdischarges (ADs) accompanied by behavioral seizures were evoked. […]
Dosage amount and interval of administration of compounds of the present invention can be adjusted individually to reduce seizure frequency, duration or intensity. For example, doses of 250 mg/kg 2-DG or less to higher as tolerated can be used to reduce seizure frequency and minimize toxicity. Doses of as much as 2000 mg/kg 2-DG are well tolerated in rats. […] A practitioner skilled in the art can adjust dosage in the range up to 500-600 mg/kg 2-DG and the timing of administration to produce prolonged anticonvulsant and antiepileptic effects. Efficacious dosage amounts can be adjusted to about 14 mg/kg 2-DG in children and 40 mg/kg 2-DG in adults, using therapeutic efficacy measurements (e.g., reduction in frequency or severity of seizures) as a criterion for establishing effective dosage levels.

Test [2] relates to NRSF mediated repression. Briefly: gal4-NRSF luciferase reporter (G5-TATA-Luc) in JTC-19 cells. It is filed as cell-based, rat. Conditions: JTC-19 cells. In general terms: Reporter assays use an easily measured gene product as a stand-in for the process of interest.
Test [3] deals with BDNF NRSE. Kind of test: ChIP on hippocampi of rats administered 2-DG or saline, BDNF NRSE. It is filed as in vivo, rat. The source says:
FIG. 10D is a graph showing the results of CHiP assays of ˜20 kB surrounding the NRSE element in the BDNF gene. The data is plotted as the quantity of DNA specifically precipitated (pg).
FIG. 10E is a graph showing the results of CHiP assays wherein chromatin precipitated with anti-H3K9-dimethyl or sham antibody and primers flanking the BDNF NRSE. The data is plotted as the quantity of DNA specifically precipitated (pg).
FIG. 10F is a graph showing the results of CHiP assays wherein chromatin was precipitated with anti-NRSF or sham antibody and primers flanking the BDNF or actin promoter. The data is plotted as the quantity of DNA specifically precipitated (pg).
FIG. 10I is a graph of CHIP assays performed on hippocampi from rats administered 2-DG or saline for 2 weeks and using a cocktail of anti-CtBP1 and anti-CtBP2 antibody or sham antibody and primers flanking the BDNF NRSE or actin promoter. Data is plotted as quantity of DNA specifically precipitated in picograms.
To determine whether 2-DG mediated suppression of BDNF levels was associated with a decreased level of histone H3 Lysine^9 acetylation, hippocampii from 2-DG treated or control rats were crosslinked with 1% formaldehyde and subjected to chromatin immunoprecipitation assays (ChIPs), performed as in Roopra et al.(2004, Mol Cell 14: 727-38) with an antibody specific to acetylated H3-K9. The graphs shown in FIGS. 10A through 10C show the results of experiments in which the amount (in ng) of DNA associated with nucleosomes comprising modified or unmodified H3 histone proteins was detected for an endogenous, NRSE/NRSF-regulated gene (CHRM4) in JTC-19 cells grown in the presence of 2-DG or glucose. […] However, the amount of CtBP recruited to CHRM4, the NRSF target gene, increased 5-fold in the presence of 2-DG.
ChIP assays also were performed over 20 Kb spanning the BDNF NRSE to detect deacetylated histone H3K9. In these experiments, hippocampi from rats administered 2-DG or saline for 2 weeks were subjected to CHIP with anti-H3K9-acetyl (obtained from BD-Pharmigen) or sham antibody and primers flanking BDNF NRSE or sequence 2, 5 or 10 Kb up- or downstream from the BDNF NRSE element.
Alternatively, when chromatin from the above experiments was precipitated with anti-NRSF or sham antibody and primers flanking the BDNF NRSE or actin promoter, specific binding was found at the NSRE element and not associated with the actin promoter.
The above results predicted that CtBP would be present at the BDNF NRSF binding site in rat hippocampi and that occupancy at this site should be augmented in the presence of 2-DG. To test this prediction, ChIP assays were performed using anti-CtBP antibody on chromatin isolated from 2DG-treated rats as above. Hippocampi from rats administered 2-DG or saline for 2 weeks were subjected to ChIP with a cocktail of anti-CtBP1 and anti-CtBP2 antibody or sham antibody and primers flanking the BDNF NRSE or actin promoter. […] CtBP was not detected at the actin promoter without regard to the glycolytic state of the animal, as expected for a gene not under NRSF regulatory control.

Test [4] concerns NRSF binding site (NSRE) from the mouse homolog of the human snail promoter. Briefly: SV40 luciferase reporter with snail promoter NRSE in HEK 293 cells. The class given is cell-based. The settings on record: HEK 293 cells grown overnight in the presence of glucose. The source says: FIG. 12 is a graph showing repression of expression of a reporter gene using an SV40 promoter with or without the NRSF binding site from the human snail promoter. HG=glucose; Pyr=pyruvate; 2-DG=2-deoxyglucose.
To investigate whether the effects of 2-DG on gene expression is evidenced in genes known to be involved in metastatic growth, the NRSF binding site (NSRE) from the mouse homolog of the human snail promoter (GenBank Accession No. NM_005985), comprising a 440 bp nucleotide sequence
identified as SEQ ID NO. 6 was introduced into the SV40 promoter in the plasmid vector pGL3 (available from Promega, Madison, Wis.) at the BglII and Acc65I restriction enzyme recognition sites). In pGL3. a luciferase reporter gene is under the transcriptional control of the SV40 promoter, and in the construct described herein transcription from the SV40 promoter is regulated by NRSE/NRSF. Reporter plasmids with and without the NSRE insert were transfected into HEK 293 cells (ATCC Accession No. CRL 1573 ATCC, Manassas, Va.) and the cells grown overnight in the presence of glucose with and without pyruvate, 2-DG or both pyruvate and 2DG. […]

For `O=CC[C@@H](O)[C@H](O)[C@H](O)CO` [2-DG, 2-deoxy-D-glucose], the “AD threshold reached with repeated stimulations” value in test [1] (rats, 2-DG 200 mg/kg subcutaneously 30 minutes prior to each kindling stimulation, maximum intensity of the stimulation protocol) is 1500 μramps. Further, the “change of AD threshold” value in test [1] (subcutaneous prior to each kindling stimulation that evoked AD, saline control showed a decrease) is reported as “gradual increase”. In test [1] (twice daily for 3 months, twice daily stimulation continued), the “duration of anticonvulsant effects after stopping 2-DG” value is listed as “approximately 8 weeks”. The “repression by NRSF of luciferase reporter” value in test [2] (2-DG added to pyruvate and glucose) was “augmented this effect”; in test [2] (in the absence of glucose), “unable to further augment repression”; in test [2] (in the presence of glucose) it was “increased repression”. For the same compound, the “repression of luciferase reporter gene expression by NRSF (fold repression gal4 DBD/gal4-NRSF)” value in test [2] (16 hrs) is listed as “increased repression”. In test [3] (anti-H3K9-dimethyl antibody, rat hippocampi), the “H3K9 methylation status at the BDNF NRSE” value is “robust increase”. In addition, the “NRSF binding to the BDNF NRSE” value in test [3] (anti-NRSF antibody, rat hippocampi) is recorded as “not affected”. For the same compound, in test [3] (drug treatment, rat hippocampus), the “associated histone acetylation levels for BDNF DNA” value is “lowered”. Further, the “CtBP occupancy at the BDNF NRSE” value in test [3] (rats administered 2-DG or saline for 2 weeks, anti-CtBP1 and anti-CtBP2 cocktail) is given as “significantly increased”. In addition, the “H3K9 acetylation at the NRSE element compared to controls” value in test [3] (rats administered 2-DG or saline for 2 weeks, only amplicon over 20 Kb to change) is “marked reduction”. Moreover, the “reporter gene expression (ratio of SV40-driven to NRSE/SV40 luciferase expression)” value in test [4] is given as “decreased”.
